Measurements as given in patent publication US11919862B1, “6′-(4-bromophenyl)-2′-ethoxy-3,4′-bipyridine-3′-carbonitrile as an antioxidant” (KING FAISAL UNIVERSITY, priority 2023, dated 2024).

Assay: DPPH (2,2-diphenyl-1-picrylhydrazyl) in vitro antioxidant / radical scavenging test
Assay type: biochemical
Details: 517 nm; for Inhibition: radical scavenging inhibition of DPPH, vitamin C as reference
Experimental: A new polyfunctionalized pyridine 6′-(4-bromophenyl)-2′-ethoxy-3,4′-bipyridine-3′-carbonitrile (4) was investigated for its antioxidant activity by 2,2-diphenyl-1-picrylhydrazyl (DPPH) in vitro tests that employ vitamin C as the positive control. The product 4 magnitude estimated the antioxidant potential to vanish the DPPH radical distinctive colors at 517 nm. […] The radical scavenging inhibition was calculated using the following equation: […]

SMILES	Inhibition [%]	antioxidant potential compared to vitamin C (DPPH in vitro test)
O=C1O[C@H]([C@@H](O)CO)C(O)=C1O [vit c, vitamin C, reference compound]	74	–
CCOc1nc(-c2ccc(Br)cc2)cc(-c2cccnc2)c1C#N [Product 4, 6′-(4-bromophenyl)-2′-ethoxy-3,4′-bipyridine-3′-carbonitrile]	48	high potential as an antioxidant
